In paper PMC5917010, “Structural basis for GPR40 allosteric agonism and incretin stimulation” (Nature Communications, 2018):
Where two headings read alike, the source gives them in different places.

Tests used:
Human GPR120 [1] = molecular target: T1, Human GPR120 (Homo sapiens, UniProt Q5NUL3); test: Human GPR120 b-arrestin; assay type: cell-based; settings: Supplementary Table 1
T1 sequence (Q5NUL3 1-361): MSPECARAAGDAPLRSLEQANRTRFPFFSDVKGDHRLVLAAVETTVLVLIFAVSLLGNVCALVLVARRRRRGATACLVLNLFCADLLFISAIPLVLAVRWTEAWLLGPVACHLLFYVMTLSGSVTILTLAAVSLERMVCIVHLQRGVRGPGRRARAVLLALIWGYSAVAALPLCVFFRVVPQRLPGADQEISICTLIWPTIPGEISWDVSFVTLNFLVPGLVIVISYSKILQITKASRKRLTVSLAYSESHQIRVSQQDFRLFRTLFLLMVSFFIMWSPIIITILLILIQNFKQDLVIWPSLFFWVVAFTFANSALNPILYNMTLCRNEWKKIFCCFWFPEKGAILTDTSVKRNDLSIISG

C57Bl/6 mice = test: Incretin secretion assay in C57Bl/6 mice; assay type: in vivo, mouse; settings: for plasma PYY level: Fig. 3e; for plasma total GLP-1: wild type C57BL/6 mice
Procedure: Nine week old male C57Bl/6 mice (Envigo, Indianapolis) were used. The night before the incretin assay, mice were transferred to clean cages and fasted overnight. On the morning of the assay, the mice were weighed and randomized by block randomization into groups based on body weight (N = 6) so each group had similar mean and standard deviation of body weight. […] Animals were dosed with vehicle or the test article by oral gavage. Group allocations were not blinded from the experimenters who collected the data. The mice were sacrificed at 0.5, 1, 2, 4, or 8 h post the compound treatment. Blood was taken by cardiac puncture into EDTA tubes containing DPPIV inhibitor and aprotinin cocktail after CO2 euthanization. The final DPPIV inhibitor concentration was 50 µM and aprotinin was 250 K IU/mL. Blood samples were centrifuged at 3000×g for 5 min and plasma transferred into 96 well plates. Plasma total GLP-1 and active GIP levels were measured by ELISA assays that were developed in-house. Data were expressed as mean±s.e.m. […] Cook’s distance was also calculated from linear regression. All animals were included in the analysis with their individual Cook’s distance < 1. Significance is denoted at p < 0.05.

Mouse GPR40 = Mouse GPR40 (Mus musculus, UniProt Q76JU9); test: Mouse GPR40 b-arrestin; assay type: cell-based
Sequence of Mouse GPR40 (Q76JU9 whole entry): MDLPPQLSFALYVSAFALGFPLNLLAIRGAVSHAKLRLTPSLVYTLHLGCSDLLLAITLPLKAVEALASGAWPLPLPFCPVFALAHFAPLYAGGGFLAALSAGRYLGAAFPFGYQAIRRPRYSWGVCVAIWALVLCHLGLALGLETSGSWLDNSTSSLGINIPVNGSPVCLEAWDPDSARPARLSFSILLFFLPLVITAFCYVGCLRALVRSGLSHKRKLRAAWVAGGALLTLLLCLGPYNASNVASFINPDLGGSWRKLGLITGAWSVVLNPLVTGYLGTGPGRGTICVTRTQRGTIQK

Human GPR120 [2] = molecular target: T1, Human GPR120; test: Human GPR120 Calcium (FLIPR); assay type: cell-based; settings: Supplementary Table 1
Mouse GPR120 = molecular target: T2, Mouse GPR120 (Mus musculus, UniProt Q7TMA4); test: Mouse GPR120 b-arrestin; assay type: cell-based; settings: Supplementary Table 1
T2 sequence (Q7TMA4 1-361): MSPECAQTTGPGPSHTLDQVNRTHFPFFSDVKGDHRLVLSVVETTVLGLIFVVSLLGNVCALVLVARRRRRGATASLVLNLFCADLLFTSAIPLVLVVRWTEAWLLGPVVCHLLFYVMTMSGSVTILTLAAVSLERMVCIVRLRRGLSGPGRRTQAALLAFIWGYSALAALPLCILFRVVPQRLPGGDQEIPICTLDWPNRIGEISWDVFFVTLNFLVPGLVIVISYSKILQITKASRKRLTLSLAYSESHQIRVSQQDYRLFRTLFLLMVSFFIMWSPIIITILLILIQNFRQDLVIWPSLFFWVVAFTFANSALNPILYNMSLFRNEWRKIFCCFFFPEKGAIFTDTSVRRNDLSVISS

human GPR40 (A2 site) = molecular target: T3, human GPR40 (A2 site) (Homo sapiens, UniProt O14842); test: A2 site radioligand binding with [3H]-AM-1638
T3 construct: full length recombinant human GPR40 (GPR40) cDNA; expressed in transfected cells; host or cells: HEK 293, stably transfected; crude cell surface membranes
T3 sequence (O14842 whole entry): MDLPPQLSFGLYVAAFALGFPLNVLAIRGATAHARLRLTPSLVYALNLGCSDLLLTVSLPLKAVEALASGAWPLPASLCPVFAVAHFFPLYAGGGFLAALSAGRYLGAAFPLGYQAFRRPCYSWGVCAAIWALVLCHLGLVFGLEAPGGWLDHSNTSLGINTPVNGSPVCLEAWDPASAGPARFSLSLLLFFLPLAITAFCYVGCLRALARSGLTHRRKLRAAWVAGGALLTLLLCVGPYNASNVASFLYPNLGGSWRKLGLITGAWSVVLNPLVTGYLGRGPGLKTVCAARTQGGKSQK
Procedure: Crude cell surface membranes were prepared from human embryonic kidney 293 (HEK 293) cells stably transfected (for the wild type) or transiently transfected (for the mutants and corresponding wild type) with full length recombinant human GPR40 (GPR40) cDNA, using differential centrifugation methods.
A2 Site Binding. 10 µL of compound diluted in 100% DMSO and 90 µL of Assay Buffer (50 mM Tris-HCl, pH 7.5, 10 mM CaCl2, 10 mM MgCl2, 0.1% w/v Bacitracin, 2.5% w/v dextran charcoal-treated FBS) were added to a deep 96-well polypropylene assay plate (Beckman Coulter). Two hundred μl of [^3H]-AM-1638 (84 Ci/mmol, Quotient Bioresearch Radiochemicals, Ltd.; 0.5 nM final concentration) and 200 µL of GPR40 membranes (5 µg/well), both diluted in Assay Buffer, were added to the assay plate, followed by a 1 min shake and a 1 h incubation at room temperature (22 °C).
Assays were terminated by filtration through GF/C glass fiber filtermats (Perkin Elmer) presoaked in 50 mM Tris–HCl, pH 7.5, using a Mach III cell harvester (TomTec). Filtermats were washed two times with 5 mL of ice-cold 50 mM Tris–HCl, pH 7.5 buffer, dried 1 h in a convection oven at 60 °C and embedded with Meltilex A solid scintillant (Perkin Elmer). Radioactivity was determined as counts per min (cpm) using a Trilux Microbeta plate scintillation counter (Perkin Elmer).

Rat GPR40 = Rat GPR40 (Rattus norvegicus, UniProt Q8K3T4); test: Rat GPR40 b-arrestin; assay type: cell-based
Sequence of Rat GPR40 (Q8K3T4 whole entry): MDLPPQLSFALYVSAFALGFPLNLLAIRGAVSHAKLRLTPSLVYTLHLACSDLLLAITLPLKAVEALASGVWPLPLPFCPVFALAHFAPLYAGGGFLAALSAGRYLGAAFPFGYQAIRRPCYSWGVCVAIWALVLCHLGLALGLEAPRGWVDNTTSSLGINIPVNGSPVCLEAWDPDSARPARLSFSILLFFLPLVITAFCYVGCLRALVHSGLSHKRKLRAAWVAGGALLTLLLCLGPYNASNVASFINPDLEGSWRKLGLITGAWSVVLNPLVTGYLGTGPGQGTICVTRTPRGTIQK

GFP = test: cAMP accumulation assay, GFP control
Procedure: HEK293 cells transiently transfected with Promega’s cAMP response element (CRE/luc2P) and a GPR40 construct were plated (40K cells/well) into 96-well microtiter plates using Dulbecco’s Modified Eagle’s Medium (DMEM) supplemented with 10% FBS, 20 mM HEPES, pH 7.4, 100 U/mL Penicillin, 100 µg/mL Streptomycin, and 800 µg/mL Geneticin. Test compounds were serially diluted three-fold in 100% DMSO and immediately diluted in media. […] EC50 values were calculated using a four-parameter logistic curve fitting equation.

human PPARdelta = molecular target: T4, human PPARdelta (Homo sapiens, UniProt Q03181); test: human PPARdelta binding; settings: Supplementary Table 1
T4 sequence (Q03181 1-441): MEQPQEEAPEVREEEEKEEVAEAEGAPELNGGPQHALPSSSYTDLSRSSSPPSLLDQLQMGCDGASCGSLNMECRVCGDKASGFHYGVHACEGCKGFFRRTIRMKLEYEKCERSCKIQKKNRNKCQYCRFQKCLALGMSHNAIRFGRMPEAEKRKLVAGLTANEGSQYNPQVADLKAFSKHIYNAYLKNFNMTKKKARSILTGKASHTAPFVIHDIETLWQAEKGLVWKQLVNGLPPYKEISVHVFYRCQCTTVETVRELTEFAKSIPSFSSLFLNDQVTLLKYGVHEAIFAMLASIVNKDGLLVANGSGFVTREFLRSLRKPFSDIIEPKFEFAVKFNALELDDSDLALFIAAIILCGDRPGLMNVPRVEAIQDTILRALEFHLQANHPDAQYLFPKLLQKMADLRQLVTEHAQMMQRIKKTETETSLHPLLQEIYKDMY

## Cc1cc(OCCCS(C)(=O)=O)cc(C)c1-c1cccc(COc2ccc3c(c2)OC[C@H]3CC(=O)O)c1 [TAK-875]
Human GPR120 [1]
  EC50: > 100000 nM
C57Bl/6 mice
  plasma PYY level: no effect on plasma PYY level
C57Bl/6 mice; oral treatment at 30 mg/kg
  plasma total GLP-1: no effect on plasma total GLP-1
Mouse GPR40
  EC50: 8.6 nM
Human GPR120 [2]
  EC50: > 50000 nM
Mouse GPR120
  EC50: > 50000 nM
Human GPR40 (A2 site); addition of unlabeled compound, Supplementary Fig. 1a
  effect on [3H]-AM-1638 binding: enhanced
Rat GPR40
  EC50: 36 nM
GFP; GFP control, Fig. 6c,d
  cAMP accumulation EC50, GFP: no fit
Human PPARdelta
  IC50: > 10000 nM

## COc1ccc(C(=O)N(CC(C)(C)C)c2cccc(C)n2)c(N2CCC(c3cc4ccc([C@@H](CC(=O)O)C5CC5)cc4o3)CC2)c1 [compound 1]
Human GPR120 [1]
  EC50: > 100000 nM
C57Bl/6 mice
  plasma PYY level: no effect on plasma PYY level
C57Bl/6 mice; oral gavage, up to 8 h
  plasma active GIP concentrations: significantly increases plasma active GIP concentrations up to 8 h
  plasma total GLP-1 concentrations: significantly increases plasma total GLP-1 concentrations up to 8 h
C57Bl/6 mice; oral treatment at 10 mg/kg, 4-hour window
  plasma total GLP-1: sustains an elevated level of plasma total GLP-1
Mouse GPR40
  EC50: 1.6 nM
  Emax: 146%
Human GPR120 [2]
  EC50: > 50000 nM
Mouse GPR120
  EC50: > 50000 nM
Human GPR40 (A2 site); Supplementary Table 1, read-out: Human GPR40 Binding to A2 Ki
  Ki: 0.9 nM
Human GPR40 (A2 site); competitive radioligand binding, membranes from stably transfected cells, Fig. 1a, read-out: Ki in [3H]-AM-1638 binding
  Ki: 0.81 nM
Rat GPR40
  EC50: 2.1 nM
  Emax: 163%
GFP; Homo sapiens, read-out: cAMP accumulation EC50, GFP
  EC50: > 30000 nM
Human PPARdelta
  IC50: > 10000 nM
